Assay results published in patent US12643887B2, “Heterocyclic derivatives with cardiomyocyte proliferation activity for treatment of heart diseases” (Tongji University, priority 2019, dated 2026).
Where two headings read alike, the source gives them in different places.

Assays:
[1] = molecular target: T1, human DYRK1A (Homo sapiens, UniProt Q13627); experiment: DYRK1A enzyme assay (ADP-Glo); format: biochemical
T1 construct: Recombinant full-length DYRK1A (expressed in E. Coli cells with an N-terminal GST tag); GST (N); purchased SignalChem D09-10G; host or cells: E. coli
Summary of the method: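 GST-tagged full-length human DYRK1A (E. coli, 3 nM) preincubated 30 min at 25 °C with compound in 40 mM Tris pH 7.5, 20 mM MgCl2, 0.1 mg/ml BSA, 50 μM DTT, then reacted 60 min with 20 μM DYRKtide and 60 μM ATP. ADP-Glo luminescence; IC50 by four-parameter logistic fit.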

[2] = molecular target: T2, human HIPK2 (Homo sapiens, UniProt Q9H2X6); experiment: HIPK2 enzyme assay (ADP-Glo); format: biochemical
T2 construct: Recombinant human HIPK2 (1-640); GST (N); purchased SignalChem H04-11BG; host or cells: Sf9 insect cells
T2 sequence (Q9H2X6 1-640): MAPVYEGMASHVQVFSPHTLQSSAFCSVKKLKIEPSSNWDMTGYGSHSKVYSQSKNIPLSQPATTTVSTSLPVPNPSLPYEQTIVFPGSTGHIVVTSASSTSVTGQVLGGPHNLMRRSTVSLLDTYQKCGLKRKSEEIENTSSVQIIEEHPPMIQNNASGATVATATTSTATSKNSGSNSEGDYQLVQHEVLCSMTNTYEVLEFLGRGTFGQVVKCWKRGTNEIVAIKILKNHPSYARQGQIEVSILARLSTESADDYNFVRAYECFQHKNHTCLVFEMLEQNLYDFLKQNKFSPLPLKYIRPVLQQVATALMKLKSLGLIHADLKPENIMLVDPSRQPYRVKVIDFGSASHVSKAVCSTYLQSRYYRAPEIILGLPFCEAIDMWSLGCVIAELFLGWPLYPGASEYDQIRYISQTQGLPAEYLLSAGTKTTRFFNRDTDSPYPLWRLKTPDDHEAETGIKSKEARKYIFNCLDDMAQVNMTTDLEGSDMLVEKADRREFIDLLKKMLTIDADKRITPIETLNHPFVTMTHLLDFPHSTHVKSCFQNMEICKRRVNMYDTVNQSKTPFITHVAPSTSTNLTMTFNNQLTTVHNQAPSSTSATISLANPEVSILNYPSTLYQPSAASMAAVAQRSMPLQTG
Summary of the method: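 GST-tagged HIPK2 (1-640) from Sf9, 1 nM, preincubated 30 min at 25° C with inhibitor in 40 mM Tris pH 7.5, 20 mM MgCl2. Reaction ran 90 min at 25° C with GST-MBP substrate at 0.05 mg/ml and 5 μM ATP. ADP-Glo luminescence; IC50 by four-parameter logistic fit.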

[3] = ADP-Glo, ATP 60 μM, read-out: DYRK1A IC50
[4] = ADP-Glo, ATP 5 μM, read-out: HIPK2 IC50

Compound	IC50 [1, 3] [nM]	IC50 [2, 4] [nM]	IC50 [1] [nM]	IC50 [2] [nM]
CCN(C1=N/C(=C\c2ccc3c(c2)OCO3)C(=O)N1)c1ccccc1 [Example 4, (Z)-5-(benzo[d][1,3]dioxol-5-ylmethylene)-2-(ethyl(phenyl)amino)-3,5-dihydro-4H-imidazol-4-one]	100 to 1000	> 10000		
CC(=O)N(C1=N/C(=C\c2ccc3c(c2)OCO3)C(=O)N1)c1ccccc1 [Example 5, (Z)—N-(4-(benzo[d][1,3]dioxol-5-ylmethylene)-5-oxo-4,5-dihydro-1H-imidazol-2-yl)-N-phenylacetamide]			< 100	1000 to 10000
CN(C1=N/C(=C\c2ccc3ncccc3c2)C(=O)N1)c1ccc2ncsc2c1 [Example 85, (Z)-2-(benzo[d]thiazol-6-yl(methyl)amino)-5-(quinolin-6-ylmethylene)-3,5-dihydro-4H-imidazol-4-one]	100 to 1000	> 10000		
CN(C1=N/C(=C\c2ccc3ncsc3c2)C(=O)N1)c1ccc2c(c1)ncn2C [Example 86, (Z)-5-(benzo[d]thiazol-6-ylmethylene)-2-(methyl(1-methyl-1H-benzo[d]imidazol-5-yl)amino)-3,5-dihydro-4H-imidazol-4-one]	1000 to 10000	1000 to 10000		
CN(C1=N/C(=C\c2ccc3[nH]ccc3c2)C(=O)N1)c1ccc2ncsc2c1 [Example 87, (Z)-5-((1H-indol-5-yl)methylene)-2-(benzo[d]thiazol-6-yl(methyl)amino)-3,5-dihydro-4H-imidazol-4-one]	> 10000	> 10000		
CN1C(=O)/C(=C/c2ccc3ncsc3c2)N=C1Nc1ccc2ncsc2c1 [Example 88, (Z)-2-(benzo[d]thiazol-6-ylamino)-5-(benzo[d]thiazol-6-ylmethylene)-3-methyl-3,5-dihydro-4H-imidazol-4-one]	< 100	> 10000		
COCCN(C1=N/C(=C\c2ccc3ncsc3c2)C(=O)N1)c1ccc2ncsc2c1 [Example 89, (Z)-2-(benzo[d]thiazol-6-yl(2-methoxyethyl)amino)-5-(benzo[d]thiazol-6-ylmethylene)-3,5-dihydro-4H-imidazol-4-one]	100 to 1000	100 to 1000		
Cc1nc2ccc(NC3=N/C(=C\c4ccc5ncsc5c4)C(=O)N3)cc2s1 [Example 90, (Z)-5-(benzo[d]thiazol-6-ylmethylene)-2-((2-methylbenzo[d]thiazol-6-yl)amino)-3,5-dihydro-4H-imidazol-4-one]	< 100	< 100		
CC(=O)N(C1=N/C(=C\c2ccc3ncsc3c2)C(=O)N1)c1ccc2ncsc2c1 [Example 91, (Z)—N-(benzo[d]thiazol-6-yl)-N-(4-(benzo[d]thiazol-6-ylmethylene)-5-oxo-4,5-dihydro-1H-imidazol-2-yl)acetamide]	< 100	< 100		
O=C1NC(Nc2ccc3ncsc3c2)=N/C1=C\c1cncs1 [Example 92, (Z)-2-(benzo[d]thiazol-6-ylamino)-5-(thiazol-5-ylmethylene)-3,5-dihydro-4H-imidazol-4-one]	100 to 1000	100 to 1000		
Cn1cnc2ccc(NC3=N/C(=C\c4ccc5ncsc5c4)C(=O)N3)cc21 [Example 93, (Z)-5-(benzo[d]thiazol-6-ylmethylene)-2-((1-methyl-1H-benzo[d]imidazol-6-yl)amino)-3,5-dihydro-4H-imidazol-4-one]	< 100	100 to 1000		
O=C1NC(Nc2ccc3ncsc3c2)=N/C1=C\c1ccc2nccnc2c1 [Example 94, (Z)-2-(benzo[d]thiazol-6-ylamino)-5-(quinoxalin-6-ylmethylene)-3,5-dihydro-4H-imidazol-4-one]		> 10000		
O=C1NC(Nc2ccc3ncsc3c2)=N/C1=C\c1ccc2cn[nH]c2c1 [Example 95, (Z)-5-((1H-indazol-6-yl)methylene)-2-(benzo[d]thiazol-6-ylamino)-3,5-dihydro-4H-imidazol-4-one]	> 10000	> 10000		
O=C1NC(=S)N/C1=C\c1ccc2sccc2c1 [Example 96, (Z)-5-(benzo[b]thiophen-5-ylmethylene)-2-thioxoimidazolidin-4-one]	> 10000	> 10000		
O=C1NC(Nc2ccc3nc[nH]c3c2)=N/C1=C\c1ccc2ncsc2c1 [Example 97, (Z)-2-((1H-benzo[d]imidazol-6-yl)amino)-5-(benzo[d]thiazol-6-ylmethylene)-3,5-dihydro-4H-imidazol-4-one]		< 100		
Nc1ccc(NC2=N/C(=C\c3ccc4ncsc4c3)C(=O)N2)cc1 [Example 98, (Z)-2-((4-aminophenyl)amino)-5-(benzo[d]thiazol-6-ylmethylene)-3,5-dihydro-4H-imidazol-4-one]		100 to 1000		
O=C1NC(N(Cc2ccccc2)c2ccc3ncsc3c2)=N/C1=C\c1ccc2ncsc2c1 [Example 99, (Z)-2-(benzo[d]thiazol-6-yl(benzyl)amino)-5-(benzo[d]thiazol-6-ylmethylene)-3,5-dihydro-4H-imidazol-4-one]	100 to 1000	100 to 1000		
CC(C)Nc1nc2ccc(NC3=N/C(=C\c4ccc5ncsc5c4)C(=O)N3)cc2s1 [Example 100, (Z)-5-(benzo[d]thiazol-6-ylmethylene)-2-((2-(isopropylamino)benzo[d]thiazol-6-yl)amino)-3,5-dihydro-4H-imidazol-4-one]	100 to 1000	100 to 1000		
O=C1NC(Nc2ccc3sccc3c2)=N/C1=C\c1ccc2ncsc2c1 [Example 101, (Z)-2-(benzo[b]thiophen-5-ylamino)-5-(benzo[d]thiazol-6-ylmethylene)-3,5-dihydro-4H-imidazol-4-one]		> 10000		
